In assay [1] the target is T1, Phosphatidylinositol 4,5-bisphosphate 3-kinase catalytic subunit delta isoform (Homo sapiens, UniProt O00329).
T1 sequence (O00329 whole entry): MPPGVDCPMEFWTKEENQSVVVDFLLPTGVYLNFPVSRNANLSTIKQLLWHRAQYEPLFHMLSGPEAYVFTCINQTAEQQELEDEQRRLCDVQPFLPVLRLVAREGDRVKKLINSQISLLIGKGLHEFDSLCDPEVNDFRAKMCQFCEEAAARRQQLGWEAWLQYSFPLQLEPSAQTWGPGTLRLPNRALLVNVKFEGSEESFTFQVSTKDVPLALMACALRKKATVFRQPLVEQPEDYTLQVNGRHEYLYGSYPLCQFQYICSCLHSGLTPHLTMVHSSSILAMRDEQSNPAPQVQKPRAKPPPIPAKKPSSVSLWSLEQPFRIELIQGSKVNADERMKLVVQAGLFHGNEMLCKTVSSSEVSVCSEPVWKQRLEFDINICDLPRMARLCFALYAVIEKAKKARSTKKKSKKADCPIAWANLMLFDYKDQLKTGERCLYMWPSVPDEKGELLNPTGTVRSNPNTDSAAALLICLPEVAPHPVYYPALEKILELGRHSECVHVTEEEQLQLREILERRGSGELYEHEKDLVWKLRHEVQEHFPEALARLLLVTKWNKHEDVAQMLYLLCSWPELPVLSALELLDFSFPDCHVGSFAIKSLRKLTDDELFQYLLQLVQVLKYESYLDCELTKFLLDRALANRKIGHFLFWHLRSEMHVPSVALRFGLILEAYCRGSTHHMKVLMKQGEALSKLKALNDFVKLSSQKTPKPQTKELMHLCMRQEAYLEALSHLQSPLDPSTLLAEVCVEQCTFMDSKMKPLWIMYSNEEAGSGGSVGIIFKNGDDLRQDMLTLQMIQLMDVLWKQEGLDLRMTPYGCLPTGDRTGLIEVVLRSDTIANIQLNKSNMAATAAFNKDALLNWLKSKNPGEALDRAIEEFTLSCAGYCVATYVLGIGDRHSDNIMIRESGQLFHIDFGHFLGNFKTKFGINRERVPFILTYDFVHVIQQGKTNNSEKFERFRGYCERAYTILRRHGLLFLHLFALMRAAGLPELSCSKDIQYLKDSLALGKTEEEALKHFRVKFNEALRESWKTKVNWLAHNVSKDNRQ
Put plainly: Scintillation Proximity Assay. An excerpt:
PI3Kδ: [γ-33P]ATP (10 mCi/mL) and Wheat Germ Agglutinin (WGA) YSi SPA Scintillation Beads was purchased from PerkinElmer (Waltham, Mass.). Lipid kinase substrate, D-myo-Phosphatidylinositol 4,5-bisphosphate (PtdIns(4,5)P2)D (+)-sn-1,2-di-O-octanoylglyceryl, 3-O-phospho linked (PIP2), CAS 204858-53-7, was purchased from Echelon Biosciences (Salt Lake City, Utah). PI3Kδ (p110δ/p85α) Recombinant Human Protein was purchased from Eurofins. ATP, MgCl2, DTT, EDTA, MOPS and CHAPS were purchased from SigmaAldrich.The kinase reaction was conducted in polystyrene 384-well Greiner Bio-one white plate from Thermo Fisher Scientific in a final volume of 25 μL. Inhibitors were first diluted serially in DMSO and added to the plate wells before the addition of other reaction components. The final concentration of DMSO in the assay was 2%. The PI3Kδ assay was carried out at room temperature in 20 mM MOPS, pH 6.7, 10 mM MgCl2, 5 mM DTT and CHAPS 0.03%. Reactions were initiated by the addition of ATP, the final reaction mixture consisted of 20 μM PIP2, 2 μM ATP, 0.5 μCi [γ-33P] ATP, 3.4 nM PI3Kδ. Reactions were incubated for 120 min and terminated by the addition of 40 μL SPA beads suspended in quench buffer: 163 mM potassium phosphate pH 7.8, 20% glycerol, 25 mM EDTA. The final concentration of SPA beads is 1.0 mg/mL. After the plate sealing, plates were shaken overnight at room temperature and centrifuged at 1500 rpm for 10 min, the radioactivity of the product was determined by scintillation counting on Topcount.

Assay [2] deals with Phosphatidylinositol 4,5-bisphosphate 3-kinase catalytic subunit gamma isoform (Homo sapiens, UniProt P48736). Put plainly: Scintillation Proximity Assay. An excerpt: PI3K-γ: [γ-33P]ATP (10 mCi/mL) and Wheat Germ Agglutinin (WGA) YSi SPA Scintillation Beads was purchased from PerkinElmer (Waltham, Mass.). Lipid kinase substrate, D-myo-Phosphatidylinositol 4,5-bisphosphate (PtdIns(4,5)P2)D (+)-sn-1,2-di-O-octanoylglyceryl, 3-O-phospho linked (PIP2), CAS 204858-53-7, was purchased from Echelon Biosciences (Salt Lake City, Utah). PI3Kγ (p110γ) Recombinant Human Protein was purchased from Life technology (Grand Island, N.Y.). ATP, MgCl2, DTT, EDTA, MOPS and CHAPS were purchased from SigmaAldrich (St. Louis, Mo.).The kinase reaction was conducted in polystyrene 384-well Greiner Bio-one white plate from Thermo Fisher Scientific in a final volume of 25 μL. Inhibitors were first diluted serially in DMSO and added to the plate wells before the addition of other reaction components. The final concentration of DMSO in the assay was 2%. The PI3Kγ assay was carried out at room temperature in 20 mM MOPS, pH 6.7, 10 mM MgCl2, 5 mM DTT and CHAPS 0.03%. Reactions were initiated by the addition of ATP, the final reaction mixture consisted of 20 μM PIP2, 2 μM ATP, 0.5 μCi [γ-33P] ATP, 13 nM PI3Kγ. Reactions were incubated for 120 min and terminated by the addition of 40 μL SPA beads suspended in quench buffer: 163 mM potassium phosphate pH 7.8, 20% glycerol, 25 mM EDTA. The final concentration of SPA beads is 1.0 mg/mL. After the plate sealing, plates were shaken overnight at room temperature and centrifuged at 1500 rpm for 10 min, the radioactivity of the product was determined by scintillation counting on Topcount (Perkin-Elmer).
Phosphatidylinositol 4,5-bisphosphate 3-kinase catalytic subunit gamma isoform, sequence (P48736 whole entry, canonical isoform): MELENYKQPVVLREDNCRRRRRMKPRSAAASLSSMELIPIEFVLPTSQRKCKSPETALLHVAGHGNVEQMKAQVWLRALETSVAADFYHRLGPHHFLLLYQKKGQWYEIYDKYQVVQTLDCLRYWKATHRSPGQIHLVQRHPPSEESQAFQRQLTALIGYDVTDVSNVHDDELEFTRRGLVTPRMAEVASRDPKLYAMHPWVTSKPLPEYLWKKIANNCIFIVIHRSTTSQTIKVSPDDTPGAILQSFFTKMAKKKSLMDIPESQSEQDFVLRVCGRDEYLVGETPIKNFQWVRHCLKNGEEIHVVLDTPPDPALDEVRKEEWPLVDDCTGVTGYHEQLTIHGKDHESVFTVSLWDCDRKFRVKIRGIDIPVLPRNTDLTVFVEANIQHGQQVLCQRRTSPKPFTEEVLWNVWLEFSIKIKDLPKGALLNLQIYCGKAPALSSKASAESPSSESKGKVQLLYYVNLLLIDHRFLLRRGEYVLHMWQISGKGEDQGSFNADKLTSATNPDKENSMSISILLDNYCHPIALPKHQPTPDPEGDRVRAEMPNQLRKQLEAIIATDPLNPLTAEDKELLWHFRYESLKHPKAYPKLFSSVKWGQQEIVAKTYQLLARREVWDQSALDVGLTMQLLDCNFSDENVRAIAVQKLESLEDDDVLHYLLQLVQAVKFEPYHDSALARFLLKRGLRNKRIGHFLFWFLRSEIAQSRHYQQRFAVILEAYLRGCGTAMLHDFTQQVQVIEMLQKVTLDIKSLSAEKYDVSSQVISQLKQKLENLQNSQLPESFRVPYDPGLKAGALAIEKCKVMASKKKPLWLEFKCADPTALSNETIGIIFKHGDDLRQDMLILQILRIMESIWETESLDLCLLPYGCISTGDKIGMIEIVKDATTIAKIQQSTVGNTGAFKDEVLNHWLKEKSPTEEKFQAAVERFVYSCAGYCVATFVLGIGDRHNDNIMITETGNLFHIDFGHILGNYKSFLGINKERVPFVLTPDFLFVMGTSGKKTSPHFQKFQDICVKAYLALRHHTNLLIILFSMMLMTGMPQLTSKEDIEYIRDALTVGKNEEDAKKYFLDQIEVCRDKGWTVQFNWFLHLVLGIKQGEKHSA
On the technique in general: Scintillation proximity formats need no separation of bound from free tracer.

This is an account of results in BindingDB's records for patent US10738057 (Incyte Corporation, 2020).

Where only a bound is given, the exact number is not on record here.

Turning to `Cc1ccc(C(C)C(F)(F)F)cc1-c1cnc2c(N)nc(-c3cnn(C)c3)cn12` (stereo unspecified) [US10738057, Example 69], the IC50 in assay [1] and in assay [2] was < 100 nM in each case.
As for `Cc1ncc(-c2cn3c(-c4cc(C(C)C(F)(F)F)ccc4C)cnc3c(N)n2)s1` (stereo unspecified) [US10738057, Example 70], the concentration for half-maximal inhibition (IC50) in assay [1] and in assay [2] was < 100 nM throughout.
Consider `Cc1ccc(C(C)C(F)(F)F)cc1-c1cnc2c(N)nc(-c3cnco3)cn12` (stereo unspecified) [US10738057, Example 71], for which the IC50 in assay [1] and in assay [2] was < 100 nM throughout.

Broadly, the IC50 is the concentration needed to halve the response being measured. A lower IC50 goes with higher potency.
